Results on 23 compounds are retold here after ChEMBL document CHEMBL1147920, “Identification of a novel class of succinyl-nitrile-based Cathepsin S inhibitors” (Bioorg Med Chem Lett, 2007).

A word on the IC50: it is the midpoint of a concentration-inhibition curve. The Kd is the constant that tells how readily two partners part at equilibrium. Higher therefore signals lower affinity.

Cathepsin S, sequence (P25774 whole entry): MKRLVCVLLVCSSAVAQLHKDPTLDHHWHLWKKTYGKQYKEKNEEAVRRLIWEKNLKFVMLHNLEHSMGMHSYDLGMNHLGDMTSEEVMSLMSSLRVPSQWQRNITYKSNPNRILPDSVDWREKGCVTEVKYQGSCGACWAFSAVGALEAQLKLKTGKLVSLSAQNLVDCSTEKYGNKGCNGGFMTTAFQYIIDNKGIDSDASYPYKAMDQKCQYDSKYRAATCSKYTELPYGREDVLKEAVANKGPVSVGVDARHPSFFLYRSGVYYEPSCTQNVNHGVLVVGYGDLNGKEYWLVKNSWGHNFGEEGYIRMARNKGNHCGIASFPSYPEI

The test has as its target Cathepsin S (Homo sapiens, UniProt P25774). The experiment in a line: Inhibition of human cathepsin S.
`N#C[C@@]1(NC(=O)[C@@H](CC(=O)N2CCOCC2)CC2CCCCC2)CCNC1` showed an IC50 of 141 nM and a Kd of 123 nM.
For `N#C[C@H](CCc1ccccc1)NC(=O)[C@@H](CC(=O)N1CCOCC1)CC1CCCCC1` the same measures were 171 nM and 25 nM.
The compound `N#C[C@@]1(NC(=O)[C@@H](CC(=O)N2CCOCC2)CC2CCC(c3ccccc3)CC2)CCN(C2CCCCC2)C1` (some centres undefined) yielded an IC50 of 3140 nM.
Compound `N#C[C@@]1(NC(=O)[C@@H](CC(=O)N2CCOCC2)CC2CCCCC2)CCN(CCc2ccccc2)C1` displayed an IC50 of 22.3 nM and a Kd of 15.2 nM.
`N#CC1(NC(=O)[C@@H](CC(=O)N2CCOCC2)CC2CCCCC2)CCN(Cc2ccccc2)CC1` came in with an IC50 of 207 nM and a Kd of 52 nM.
With `N#C[C@H](COCc1ccccc1)NC(=O)[C@@H](CC(=O)N1CCOCC1)CC1CCCCC1`, it took 37 nM to reach half-maximal inhibition (IC50) and binding was characterised by a dissociation constant (Kd) of 4.39 nM.
`N#C[C@@]1(NC(=O)[C@@H](CC(=O)N2CCOCC2)CC2CCCCC2)CCN(CC2CC2)C1` gave a concentration for half-maximal inhibition (IC50) of 22 nM and a dissociation constant Kd of 20 nM.
`N#C[C@@]1(NC(=O)[C@@H](CC(=O)N2CCOCC2)CC2CCCCC2)CCN(C2CCCCCC2)C1` displayed an IC50 of 23 nM and a dissociation constant Kd of 11 nM.
For `CC(C)N1CC[C@@](C#N)(NC(=O)[C@@H](CC(=O)N2CCOCC2)CC2CCCCC2)C1`, in that order: 66 nM and 60.6 nM.
Compound `CC1CCC(C[C@H](CC(=O)N2CCOCC2)C(=O)N[C@]2(C#N)CCN(C3CCCCC3)C2)CC1` (some centres undefined) showed a half-maximal inhibitory concentration (IC50) of 14 nM and a Kd of 13.8 nM.
Compound `N#C[C@H](COCc1ccc(Cl)cc1)NC(=O)[C@@H](CC(=O)N1CCOCC1)CC1CCCCC1` had an IC50 of 62 nM and a Kd of 4.86 nM.
For `N#C[C@@]1(NC(=O)[C@@H](CC(=O)N2CCOCC2)CC2CCCCC2)CCN(C2CCCC2)C1`, the IC50 was determined as 75 nM.
Take `N#C[C@@]1(NC(=O)[C@@H](CC(=O)N2CCOCC2)CC2Cc3ccccc3C2)CCN(C2CCCCC2)C1`: half-maximal inhibition (IC50) was put at 42 nM and binding was characterised by a dissociation constant (Kd) of 23.1 nM.
For `N#CC1(NC(=O)[C@@H](CC(=O)N2CCOCC2)CC2CCCCC2)CC1` the same measures were 135 nM and 12 nM.
For `CC(C)CN1CC[C@@](C#N)(NC(=O)[C@@H](CC(=O)N2CCOCC2)CC2CCCCC2)C1`, in that order: 39 nM and 53.3 nM.
For `N#C[C@@]1(NC(=O)[C@@H](CC(=O)N2CCOCC2)CC2CCCC2)CCN(C2CCCCC2)C1` the same measures were 63 nM and 59 nM.
Compound `CC1(C[C@H](CC(=O)N2CCOCC2)C(=O)N[C@]2(C#N)CCN(C3CCCCC3)C2)CCCCC1` had an IC50 of 47 nM and a Kd of 77.3 nM.
For `N#C[C@]1(NC(=O)[C@@H](CC(=O)N2CCOCC2)CC2CCCCC2)CCN(CC2CCCCC2)C1` the same measures were 41 nM and 13.8 nM.
For `CN1CCC(C#N)(NC(=O)[C@@H](CC(=O)N2CCOCC2)CC2CCCCC2)CC1` the same measures were 251 nM and 177 nM.
For `N#C[C@@]1(NC(=O)[C@@H](CC(=O)N2CCOCC2)CC2CCCCC2)CCN(C2CCCCC2)C1`, in that order: 23 nM and 17.8 nM.
The compound `N#C[C@]1(NC(=O)[C@@H](CC(=O)N2CCOCC2)CC2CCCCC2)CCN(Cc2ccccc2)C1` showed a half-maximal inhibitory concentration (IC50) of 29 nM and a Kd of 3.64 nM.
In the case of `CN1CC[C@@](C#N)(NC(=O)[C@@H](CC(=O)N2CCOCC2)CC2CCCCC2)C1`, the IC50 came out at 155 nM and the Kd came out at 161 nM.
In turn, `N#C[C@@]1(NC(=O)[C@@H](CC(=O)N2CCOCC2)CC2CCc3ccccc3C2)CCN(C2CCCCC2)C1` (some centres undefined) returned an IC50 of 1.9 nM and a Kd of 5.4 nM.
